Data taken from US20240343699A1, “DERIVATIVES OF SUBSTITUTED MORPHOLINES AND USES THEREOF” (Supernus Pharmaceuticals, Inc., priority 2023, published 2024).
Where “and” joins values, the source holds several entries; their conditions need not be identical. Equal values may be shown once. Read-outs that look alike come from different tables or passages of the source.

What was measured:
immobility = test: Tail suspension test (TST)
Protocol: The tail suspension test is an experimental method used in scientific research to measure a state of being helpless in rodents, especially in mice. It is based on the observation that if a mouse is subjected to short term inescapable stress then the mouse will stop struggling. Immobility is quantified by measuring the amount of time lacking whole body activity.
The immobilized time in the last 4 min of the TST, which indicated depression-like behavior, was quantified using offline video manual scoring in a blinded manner.
Animals. Adult (7 to 8 weeks) male mice (C57Bl/6, Charles River Laboratories) were used in the study. Upon arrival, animals were group-housed (5/cage) with access to food and water ad libitum. Animals were maintained on a 12/12-hour light/dark cycle in a temperature—(22±2° C.) and humidity—(approx. 50%) controlled room. Animals were numbered consecutively by tail marks. Each cage was identified by a card indicating the study number, sex, animal numbers and date of birth.
Test article formulations were prepared fresh based on weight-to-volume in the vehicle on each dosing day. […] The appearance of the formulations was clear, with no precipitations. […] A vehicle group was included for comparison.
Monitoring. A piezoelectric sensor operated by the SmartCage system was utilized and video recording was conducted for scoring. After animals acclimated to the testing room, an individual mouse's tail was placed onto the piezoelectric sensor-board and the mouse was hung upside down, which signaled the immediate start of the recording of struggle activity, and it lasted for 6 min. The mouse was then taken off and returned to the home cage. The immobilized time, indicating depression-like behavior, was quantified using manual scoring of the video recordings for the period from 120 seconds to 360 seconds during TST. The percent immobility time was calculated: (immobility time/240 seconds)*100.
The immobilized time in the last 4 min of the TST, which indicates depression-like behavior, was quantified using offline video manual scoring in a blinded manner.
Animals. Adult (8 weeks, approximately 20-25 g) male mice (C57Bl/6, Vendor: Charles River Laboratories) were used in the study. Upon arrival, animals were group-housed (5/cage) with access to food and water ad libitum. Animals were maintained on a 12/12-hour light/dark cycle in a temperature—(22±2° C.) and humidity—(35-50%) controlled room. Animals were numbered consecutively by tail ID. Each cage was identified by a colored card indicating the study number, sex, animal numbers and date of birth.
Test article formulations were prepared fresh based on weight-to-volume in the vehicle on dosing day. […] The appearance of the formulations was clear, with no precipitations.
The tail suspension test is an experimental method used in scientific research to measure a state of being helpless in rodents, especially in mice. It is based on the observation that if a mouse is subjected to short term inescapable stress then the mice will give up struggling. “Immobility” is quantified by measuring the amount of time during which the animal has no whole-body activity.
Tail Suspension Test (TST). A piezoelectric sensor operated by the SmartCage system was utilized and video recording was conducted for scoring. Once animals were acclimated to the testing room, the TST was initiated by placing the tail of the test mouse onto the piezoelectric sensor-board and hanging the mouse upside down. The recording period was initiated once the mouse was upside down and lasted for 6 min. After the recording period, the mouse was removed from the recording device and returned to its home cage.

recognition memory = test: Spontaneous novel object recognition (NOR), 48 hr retention interval; assay type: in vivo, male Wistar rats; details: 48 hr delay
locomotor activity = test: SmartCage locomotor activity; details: 24 hr
Protocol: Animals. […] Upon arrival at the facility, animals were group-housed (5/cage) with access to food and water ad libitum. Animals were maintained on a 12/12-hour light/dark cycle in a temperature—(22±2° C.) and humidity-(approx.35-50%) controlled room. Animals were numbered consecutively by tail ID marker in each home cage.
Locomotor Activity Monitoring. […] After the first day, animals were administered one of four doses (PO) of test article and monitored for the next 24 hours. The animal's activity during the monitored hours was quantified using the parameters of distance travelled, time active, and rearing activity.
SmartCage. After a washout period of at least 24 hours following a TST evaluation during which the animals were group-housed (5/cage), individual mice were placed into a freshly prepared home cage and their activity recorded simultaneously using the SmartCage™ system and a video camera placed above the SmartCage™ system.
Active wakefulness was defined as actively moving, rearing, and exploratory behaviors. […] Likewise, distance traveled in centimeters was obtained from the lower horizontal IR and calculated taking into account the animal's path. […] The calculated distance traveled (at any given time period, called ‘block’, or ‘total measuring period’) and speed were the two main parameters for locomotor activity. […]

[1] = Plasma stability in rat plasma; assay type: in vitro ADME, Sprague Dawley rat; details: final concentration 2 μM
Protocol: A study was conducted to examine the plasma stability. Test Compounds: COMPOUND D, COMPOUND E, and Viloxazine. Positive controls: Enalapril and Propantheline.
A study was conducted to examine the bioanalytical data for compounds in Rat plasma. Frozen Sprague Dawley rat (male pooled) and human (mixed gender) plasma was utilized for the study. Test compounds were dissolved in dimethyl sulfoxide (DMSO) to make a 10 mM stock solution. A working solution was made with MeOH/water. COMPOUND E ([…]) was incubated with plasma in duplicates at 37° C. in a water bath. Sampling timepoints included 0, 5, 15, 30, and 60 min Enalapril and propantheline were used as positive control for rat and human plasma at 2 μM

[2] = assay type: in vitro ADME; details: Rat plasma, wet ice bath
Protocol: A study was conducted to examine the bioanalytical data for compounds in Rat plasma. […] Frozen Sprague Dawley rat (male pooled) and human (mixed gender) plasma was utilized for the study. Test compounds were dissolved in dimethyl sulfoxide (DMSO) to make a 10 mM stock solution. A working solution was made with MeOH/water. […]

[3] = assay type: in vitro ADME, mouse; details: mice Blood, wet ice bath, 5% Paraoxon ethyl as stabilizer; for % stability: 0.5 hr
Binding assays = details: 1.0E−05 M
Protocol: A study was conducted to test COMPOUND D and COMPOUND E in Binding and enzyme and uptake assays.
COMPOUND D and COMPOUND E were tested at 1.0E-05 M.
The results are expressed as a percent of control specific binding and as a percent inhibition of control specific binding
The IC50 values (concentration causing a half-maximal inhibition of control specific binding) and Hill coefficients (nH) were determined by non-linear regression analysis of the competition curves generated with mean replicate values using Hill equation curve fitting […]
where Y=specific binding, A=left asymptote of the curve, D=right asymptote of the curve, C=compound concentration, C50=IC50, and nH=slope factor. This analysis was performed using software developed at Cerep (Hill software) and validated by comparison with data generated by the commercial software SigmaPlot® 4.0 for Windows® (© 1997 by SPSS Inc.).
The inhibition constants (Ki) were calculated using the Cheng Prusoff equation where L=concentration of radioligand in the assay, and KD=affinity of the radioligand for the receptor. A scatchard plot is used to determine the KD.
In Vitro Pharmacology. Results showing an inhibition (or stimulation for assays run in basal conditions) higher than […] were considered to represent significant effects of the test compounds. Results showing an inhibition (or stimulation) between 25% and 50% are indicative of weak to moderate effects. Results showing an inhibition (or stimulation) lower than […] were not considered significant and mostly attributable to variability of the signal around the control level.

[4] = Preclinical PK after intraperitoneal dosing of COMPOUND D, COMPOUND B and viloxazine; assay type: in vivo, mouse; details: COMPOUND B IP 10.948 mg/kg; for concentration at 0.25 h / concentration at 0.5 h: read-out: Plasma concentration of COMPOUND B; for MRT last: read-out: MRT0-last, plasma COMPOUND B; for Tmax: read-out: Tmax, plasma COMPOUND B
[5] = mouse, plasma, ip, 10.948 mg/kg, individual mice
[6] = mouse, plasma, ip, 10.948 mg/kg, mean

SMILES: CCOc1ccccc1OC[C@@H]1CN(C(=O)OC(C)OC(=O)[C@@H](N)C(C)C)CCO1 (stereo partly drawn) [COMPOUND A]
- decrease of immobility compared to vehicle (immobility; COMPOUND A 32 mg/kg PO): 30%
- percent immobility time (immobility; COMPOUND A 4, 8, 16, 32 mg/kg PO, ANOVA p=0.006): significant reduction in immobility
- preference for the novel object (exploration times) (recognition memory; COMPOUND A 15 mg/kg p.o.): non-significant trend toward a preference for the novel object
- preference for the novel object (exploration times) (recognition memory; COMPOUND A 30, 60, and 90 mg/kg p.o.): significant (p<0.05) preference for the novel object
- d2 ratios vs vehicle-control (recognition memory; COMPOUND A 60 and 90 mg/kg p.o.): significant difference (p<0.05) from the vehicle-control response
- home cage activity (activity, rearing, distance, velocity) (locomotor activity; COMPOUND A 10, 30 and 90 mg/kg PO): no significant effect on daytime or nighttime activity measurements

SMILES: CCOc1ccccc1OCC1CN(C(=O)OC(OC(=O)[C@@H](N)C(C)C)C(C)C)CCO1 (stereo partly drawn) [COMPOUND E]
- % Remaining at 60 min (Mean) [1]: 0.0%
- Mean peak area ratio ([2]; 5% Paraoxon ethyl as stabilizer, HQC, 0 hr sample): 3.38
- % stability ([2]; 5% Paraoxon ethyl as stabilizer, HQC, 1 hr): 79.5%
- Mean peak area ratio ([2]; 5% Paraoxon ethyl as stabilizer, HQC, 1 hr sample): 2.69
- % stability ([2]; 5% Paraoxon ethyl as stabilizer, HQC, 2 hr): 62.9%
- Mean peak area ratio ([2]; 5% Paraoxon ethyl as stabilizer, HQC, 2 hr sample): 2.13
- Mean peak area ratio ([2]; 5% Paraoxon ethyl as stabilizer, LQC, 0 hr sample): 0.00882
- % stability ([2]; 5% Paraoxon ethyl as stabilizer, LQC, 1 hr): 68.3%
- Mean peak area ratio ([2]; 5% Paraoxon ethyl as stabilizer, LQC, 1 hr sample): 0.00602
- % stability ([2]; 5% Paraoxon ethyl as stabilizer, LQC, 2 hr): 63.7%
- Mean peak area ratio ([2]; 5% Paraoxon ethyl as stabilizer, LQC, 2 hr sample): 0.00562
- Mean peak area ratio ([2]; No stabilizer, HQC, 0 hr sample): 1.58
- % stability ([2]; No stabilizer, HQC, 1 hr): 20.9%
- Mean peak area ratio ([2]; No stabilizer, HQC, 1 hr sample): 0.33
- % stability ([2]; No stabilizer, HQC, 2 hr): 2.5%
- Mean peak area ratio ([2]; No stabilizer, HQC, 2 hr sample): 0.04
- Mean peak area ratio ([2]; No stabilizer, LQC, 0 hr sample): 0.00472
- % stability ([2]; No stabilizer, LQC, 1 hr): 28.2%
- Mean peak area ratio ([2]; No stabilizer, LQC, 1 hr sample): 0.00133
- % stability ([2]; No stabilizer, LQC, 2 hr): 5.3%
- Mean peak area ratio ([2]; No stabilizer, LQC, 2 hr sample): 0.00025
- Mean peak area ([3]; HQC, 0 hr sample): 2.903
- % stability ([3]; HQC): 103%
- Mean peak area ([3]; HQC, 0.5 hr sample): 3.00
- Mean peak area ([3]; LQC, 0 hr sample): 0.00933
- % stability ([3]; LQC): 86.3%
- Mean peak area ([3]; LQC, 0.5 hr sample): 0.00806
- inhibition, 5-HT2B(h) (agonist radioligand) (Binding assays): 80.2%
- inhibition, 5-HT2C(h) (agonist radioligand) (Binding assays): 54.1%
- inhibition, Ca^2+ channel (L, diltiazem site) (benzothiazepines) (antagonist radioligand) (Binding assays): 78.9%
- inhibition, Ca^2+ channel (L, verapamil site) (phenylalkylamine) (antagonist radioligand) (Binding assays): 50.7%
- inhibition, MT3 (ML2) (agonist radioligand) (Binding assays): 51.1%
- inhibition, Na^+ channel (site 2) (antagonist radioligand) (Binding assays): 84.5%

SMILES: CCOc1ccccc1OC[C@@H]1CN(C(=O)OC(OC(=O)[C@@H](N)C(C)C)C(C)C)CCO1 (stereo partly drawn) [COMPOUND B]
- Plasma concentration of COMPOUND B ([4]; 0.250 h, individual mice, 10.948 mg/kg): BQL and 17.7 ng/mL
- Plasma concentration of COMPOUND B ([4]; 0.500 h, individual mice, 10.948 mg/kg): 4.88 ng/mL and 8.44 ng/mL
- Plasma concentration of COMPOUND B ([4]; 1.00 h, individual mice): BQL
- Plasma concentration of COMPOUND B ([4]; 2.00 h, individual mice): BQL
- Plasma concentration of COMPOUND B ([4]; 4.00 h, individual mice): BQL
- Plasma concentration of Viloxazine ([4]; 4.00 h, individual mice, 10.948 mg/kg): BQL
- Plasma concentration of COMPOUND B ([4]; 8.00 h, individual mice): BQL
- Plasma concentration of Viloxazine ([4]; 8.00 h, individual mice, 10.948 mg/kg): BQL
- Plasma concentration of COMPOUND B ([4]; 24.0 h, individual mice): BQL
- Plasma concentration of Viloxazine ([4]; 24.0 h, individual mice): BQL
- Tlast, plasma COMPOUND B ([4]; individual mice): 0.500 h
- AUC0-last, plasma COMPOUND B ([4]; individual mice, 10.948 mg/kg): 6.48 ng·h/mL and 1.22 ng·h/mL and 5.34 ng·h/mL
- Cmax, plasma COMPOUND B ([4]; individual mice, 10.948 mg/kg): 25.4 ng/mL and 4.88 ng/mL and 17.7 ng/mL
- MRT0-last, plasma COMPOUND B ([4]; individual mice, 10.948 mg/kg): 30 min and 18.8 min
- Tmax, plasma COMPOUND B ([4]; individual mice, 10.948 mg/kg): 30 min and 15 min
- Tlast, plasma COMPOUND B ([4]; mean): 0.500 h
- concentration at 0.25 h ([4]; mouse, plasma, ip, 10.948 mg/kg, 0.250 h, individual mice): 25.4 ng/mL
- concentration at 0.25 h ([4]; mouse, plasma, ip, 10.948 mg/kg, 0.250 h, mean): 21.6 ng/mL
- concentration at 0.5 h ([4]; mouse, plasma, ip, 10.948 mg/kg, 0.500 h, individual mice): 5.75 ng/mL
- concentration at 0.5 h ([4]; mouse, plasma, ip, 10.948 mg/kg, 0.500 h, mean): 6.36 ng/mL
- MRT last [4, 5]: 17.9 min
- Tmax [4, 5]: 15 min
- AUC(0-t) ([4]; mouse, plasma, ip, 10.948 mg/kg, mean, read-out: AUC0-last, plasma COMPOUND B): 4.35 ng·h/mL
- Cmax ([4]; mouse, plasma, ip, 10.948 mg/kg, mean, read-out: Cmax, plasma COMPOUND B): 16 ng/mL
- MRT last [4, 6]: 22.3 min
- Tmax [4, 6]: 20 min

SMILES: CCOc1ccccc1OC[C@@H]1CN(C(=O)OC(OC(=O)[C@H](N)C(C)C)C(C)C)CCO1 (stereo partly drawn) [COMPOUND C]
- percent immobility time (immobility; COMPOUND C 30 mg/kg PO, dose-response study, vs vehicle): tendency in decreasing immobility
- percent immobility time (immobility; COMPOUND C 30 mg/kg PO, follow-up study, vs vehicle (p=0.43)): no significant reduction in immobility
- percent immobility time (immobility; COMPOUND C 10, 30, 60, 90 mg/kg PO 30 min prior, ANOVA across all doses): no significant reduction in immobility
- home cage activity (activity, rearing, distance, velocity) (locomotor activity; COMPOUND C 10, 30, 60 and 90 mg/kg PO): no significant effect on daytime or nighttime activity measurements
